For this assay, the target named is T1, RORγ (Homo sapiens, UniProt P51449).
T1 construct: Jurkat pEx/Gal/hRORγ CLBD/HYG pG5luc/blast; expressed in transfected cells
T1 sequence (P51449 269-508 limits assumed): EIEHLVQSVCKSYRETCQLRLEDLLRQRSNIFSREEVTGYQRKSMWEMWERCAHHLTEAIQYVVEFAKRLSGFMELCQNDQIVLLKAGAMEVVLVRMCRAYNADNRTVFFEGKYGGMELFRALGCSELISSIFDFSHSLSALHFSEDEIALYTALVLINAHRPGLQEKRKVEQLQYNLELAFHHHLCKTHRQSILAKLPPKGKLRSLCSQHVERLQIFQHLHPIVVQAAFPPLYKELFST
As to the kind of experiment: RORγ Gal4 reporter assay (Gal4-luciferase reporter in Jurkat cells). The format is cell-based. Particulars: inhibition of luminescence (inverse agonist activity); Jurkat cells stably over-expressing hRORγ; incubated overnight. The protocol:
General RORγ Gal4 Reporter Assay
Inverse agonist activity of potential ligands to RORγ was measured by inhibition of luminescence in a Gal4-luciferase reporter assay in Jurkat cells.
Jurkat cells stably over-expressing the RORγ receptor, Jurkat pEx/Gal/hRORγ CLBD/HYG pG5luc/blast, were plated at a concentration of 10,000 cells/well in a 384-well solid white cell culture plate (Perkin Elmer #6007899) in assay buffer RPMI 1640 (Gibco 11875-085 1L) containing 0.1% BSA, 100×HEPES (Gibco 15360-080), 100 mM sodium pyruvate (Gibco 11360-040), […] Hygromycin B (Invitrogen 10687-010) and 10 mg/mL blasticidin (Invitrogen R210-01). 100 nL of test compound in a 3-fold serial dilution, with final concentrations ranging from 40 μM to 0.67 nM, were added to the cells which were then incubated overnight.
The following day, cells were lysed with 10 μL of Steady-Glo Luciferase Assay System (Promega Cat. No. EZ550), and analyzed immediately. IC50 values were determined. The IC50 value is defined as the concentration of test compound needed to reduce luciferase activity by 50% and is calculated using the four parameter logistic equation to fit the normalized data.
(In general: Reporter assays use an easily measured gene product as a stand-in for the process of interest.)

This is an account of results in patent US10968177B2, “Tricyclic sulfones as RORγ modulators” (BRISTOL-MYERS SQUIBB COMPANY, priority 2016, dated 2021).

As a reminder, the IC50 is the concentration that gives 50% inhibition. Read a low IC50 as inhibition by little substance.

Consider `N#CC1(C(=O)N2CC[C@@]3(S(=O)(=O)c4ccc(F)cc4)c4ccc(C(F)(C(F)(F)F)C(F)(F)F)cc4CC[C@@H]23)CCS(=N)(=O)CC1` (stereo partly shown) [Example 10], for which the IC50 worked out at 48 nM.

In the case of `CN=S1(=O)CCC(C(=O)N2CC[C@@]3(S(=O)(=O)c4ccc(F)cc4)c4ccc(C(F)(C(F)(F)F)C(F)(F)F)cc4CC[C@@H]23)CC1` (single isomer, unassigned) [Example 13], the IC50 was found to be 26 nM.

With `CC(=O)N=S1(=O)CCC(C(=O)N2CC[C@@]3(S(=O)(=O)c4ccc(F)cc4)c4ccc(C(F)(C(F)(F)F)C(F)(F)F)cc4CC[C@@H]23)CC1` (single isomer, unassigned) [Example 15], the IC50 was determined as 49 nM.

Compound `N=S1(=O)CCC(C(=O)N2CC[C@@]3(S(=O)(=O)c4ccc(F)cc4)c4ccc(C(F)(C(F)(F)F)C(F)(F)F)cc4CC[C@@H]23)CC1` (single isomer, unassigned) [Example 12] displayed an IC50 of 56 nM.

With `N=S1(=O)CCC(C(=O)N2CCC3(S(=O)(=O)c4cccc(F)c4)c4ccc(C(F)(C(F)(F)F)C(F)(F)F)cc4CCC23)CC1` (single isomer, unassigned) [Example 1, (9b-((3-fluorophenyl)sulfonyl)-7-(perfluoropropan-2-yl)-1,2,3a,4,5,9b-hexahydro-3H-benzo[e]indol-3-yl)(1-imino-1-oxidohexahydro-1λ^6-thiopyran-4-yl)methanone], the concentration for half-maximal inhibition (IC50) stood at 40 nM.

`N=S1(=O)CCC(C(=O)N2CCC3(S(=O)(=O)c4cccc(Cl)c4)c4ccc(C(F)(C(F)(F)F)C(F)(F)F)cc4CCC23)CC1` (single isomer, unassigned) [Example 2]: the IC50 was 57 nM.

`N=S1(=O)CCC(F)(C(=O)N2CC[C@@]3(S(=O)(=O)c4ccc(F)cc4)c4ccc(C(F)(C(F)(F)F)C(F)(F)F)cc4CC[C@@H]23)CC1` (single isomer, unassigned) [Example 19] displayed an IC50 of 60 nM.

Regarding `N=S1(=O)CCC(C(=O)N2CC[C@@]3(S(=O)(=O)c4ccc(F)cc4)c4ccc(C(F)(C(F)(F)F)C(F)(F)F)cc4CC[C@@H]23)CC1` (mixture of isomers) [Example 7, ((3aR,9bR)-9b-((4-fluorophenyl)sulfonyl)-7-(perfluoropropan-2-yl)-1,2,3a,4,5,9b-hexahydro-3H-benzo[e]indol-3-yl)(1-imino-1-oxidohexahydro-1λ^6-thiopyran-4-yl)methanone], the IC50 came out at 28 nM.

Take `CN=S1(=O)CCC(C(=O)N2CC[C@@]3(S(=O)(=O)c4ccc(F)cc4)c4ccc(C(F)(C(F)(F)F)C(F)(F)F)cc4CC[C@@H]23)CC1` (single isomer, unassigned) [Example 14]: the IC50 worked out at 40 nM.

As to `N=S1(=O)CCC(C(=O)N2CCC3(S(=O)(=O)c4ccc(F)cc4)c4ccc(C(F)(C(F)(F)F)C(F)(F)F)cc4NCC23)CC1` (single isomer, unassigned) [Example 6, (9b-((4-fluorophenyl)sulfonyl)-7-(perfluoropropan-2-yl)-1,2,3a,4,5,9b-hexahydro-3H-pyrrolo[2,3-c]quinolin-3-yl)(1-imino-1-oxidohexahydro-1λ^6-thiopyran-4-yl)methanone], the IC50 is 51 nM.

`CC1(C(=O)N2CC[C@@]3(S(=O)(=O)c4ccc(F)cc4)c4ccc(C(F)(C(F)(F)F)C(F)(F)F)cc4CC[C@@H]23)CCS(=N)(=O)CC1` (stereo partly shown) [Example 8] returned an IC50 of 34 nM.

In turn, `CN1CC2N(C(=O)C3CCS(=N)(=O)CC3)CCC2(S(=O)(=O)c2ccc(F)cc2)c2ccc(C(F)(C(F)(F)F)C(F)(F)F)cc21` (stereo not shown) [Example 17] showed an IC50 of 21 nM.

Take `N=S1(=O)CCC(C(=O)N2CCC3(S(=O)(=O)c4ccccc4)c4ccc(C(F)(C(F)(F)F)C(F)(F)F)cc4CCC23)CC1` (single isomer, unassigned) [Example 3]: the IC50 was found to be 56 nM.

`N=S1(=O)CCC(C(=O)N2CCC3(S(=O)(=O)c4ccc(F)cc4)c4ccc(C(F)(C(F)(F)F)C(F)(F)F)cc4OCC23)CC1` (single isomer, unassigned) [Example 4] yielded an IC50 of 246 nM.

For the compound `CC(=O)N=S1(=O)CCC(C(=O)N2CC[C@@]3(S(=O)(=O)c4ccc(F)cc4)c4ccc(C(F)(C(F)(F)F)C(F)(F)F)cc4CC[C@@H]23)CC1` (single isomer, unassigned) [Example 16], the IC50 was 77 nM.

For the compound `N=S1(=O)CCC(C(=O)N2CCC3(S(=O)(=O)c4ccc(Cl)cc4)c4ccc(C(F)(C(F)(F)F)C(F)(F)F)cc4CCC23)CC1` (single isomer, unassigned) [Example 5], the IC50 was 58 nM.

With `N=S1(=O)CCC(O)(C(=O)N2CC[C@@]3(S(=O)(=O)c4ccc(F)cc4)c4ccc(C(F)(C(F)(F)F)C(F)(F)F)cc4CC[C@@H]23)CC1` (mixture of isomers) [Example 9, ((3aR)-9b-((4-fluorophenyl)sulfonyl)-7-(perfluoropropan-2-yl)-4,5-dihydro-1H-benzo[e]indol-3(2H,3aH,9bH)-yl)(4-hydroxy-1-imino-1-oxidotetrahydro-2H-thiopyran-4-yl)methanone], the IC50 worked out at 14 nM.

The compound `N=S1(=O)CCC(C(=O)N2CC[C@@]3(S(=O)(=O)c4ccc(F)cc4)c4ccc(C(F)(C(F)(F)F)C(F)(F)F)cc4CC[C@@H]23)CC1` (single isomer, unassigned) [Example 11] came in with a 50% inhibitory concentration (IC50) of 39 nM.

In turn, `N=S1(=O)CCC(F)(C(=O)N2CC[C@@]3(S(=O)(=O)c4ccc(F)cc4)c4ccc(C(F)(C(F)(F)F)C(F)(F)F)cc4CC[C@@H]23)CC1` (single isomer, unassigned) [Example 18] had an IC50 of 52 nM.
